The values that follow come from ChEMBL document CHEMBL5370540, “Discovery of pyrimidine-5-carboxamide derivatives as novel salt-inducible kinases (SIKs) inhibitors for inflammatory bowel disease (IBD) treatment” (Eur J Med Chem, 2023).

The source made the active and inactive calls.

Data set [1] in a line: Metabolic stability in human liver microsomes assessed as half life. The class given is ADME, Microsome. Background: Microsomes from liver hold many membrane-bound enzymes, among them those of drug oxidation.
Data set [2] addresses T1, Serine/threonine-protein kinase SIK2 (Homo sapiens, UniProt Q9H0K1). Briefly: Inhibition of SIK2 (unknown origin) assessed as residual activity at 0.1 uM relative to control.
Target sequence in this assay (Q9H0K1 whole entry, looked up): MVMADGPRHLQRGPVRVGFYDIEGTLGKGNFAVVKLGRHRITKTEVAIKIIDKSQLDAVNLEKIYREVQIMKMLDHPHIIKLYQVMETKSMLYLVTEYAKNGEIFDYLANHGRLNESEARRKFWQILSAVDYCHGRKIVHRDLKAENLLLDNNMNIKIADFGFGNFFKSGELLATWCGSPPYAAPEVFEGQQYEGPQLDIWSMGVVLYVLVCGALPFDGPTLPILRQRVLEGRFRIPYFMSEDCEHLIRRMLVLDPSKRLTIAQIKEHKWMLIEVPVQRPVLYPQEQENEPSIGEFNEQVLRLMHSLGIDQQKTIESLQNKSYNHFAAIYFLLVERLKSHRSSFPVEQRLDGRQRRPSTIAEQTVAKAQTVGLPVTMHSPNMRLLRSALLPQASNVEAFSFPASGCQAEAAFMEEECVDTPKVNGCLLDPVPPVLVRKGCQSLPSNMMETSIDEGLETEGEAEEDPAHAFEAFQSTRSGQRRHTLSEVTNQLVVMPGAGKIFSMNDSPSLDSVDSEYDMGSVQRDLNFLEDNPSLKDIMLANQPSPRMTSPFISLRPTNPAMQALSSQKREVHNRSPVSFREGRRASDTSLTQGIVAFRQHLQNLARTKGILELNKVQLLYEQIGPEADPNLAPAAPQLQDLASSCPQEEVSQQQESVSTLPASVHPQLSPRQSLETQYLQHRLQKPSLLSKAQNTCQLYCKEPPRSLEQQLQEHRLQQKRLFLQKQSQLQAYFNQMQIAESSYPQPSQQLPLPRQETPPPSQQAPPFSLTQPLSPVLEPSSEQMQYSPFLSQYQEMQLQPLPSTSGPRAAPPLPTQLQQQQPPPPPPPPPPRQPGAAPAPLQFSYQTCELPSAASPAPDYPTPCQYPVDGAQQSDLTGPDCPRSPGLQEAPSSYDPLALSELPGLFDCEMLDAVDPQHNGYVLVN
In data set [3] the target is T2, Serine/threonine-protein kinase SIK3 (Homo sapiens, UniProt Q9Y2K2). Briefly: Inhibition of SIK3 (unknown origin) assessed as residual activity at 0.1 uM relative to control.
Target sequence in this assay (Q9Y2K2 whole entry, looked up): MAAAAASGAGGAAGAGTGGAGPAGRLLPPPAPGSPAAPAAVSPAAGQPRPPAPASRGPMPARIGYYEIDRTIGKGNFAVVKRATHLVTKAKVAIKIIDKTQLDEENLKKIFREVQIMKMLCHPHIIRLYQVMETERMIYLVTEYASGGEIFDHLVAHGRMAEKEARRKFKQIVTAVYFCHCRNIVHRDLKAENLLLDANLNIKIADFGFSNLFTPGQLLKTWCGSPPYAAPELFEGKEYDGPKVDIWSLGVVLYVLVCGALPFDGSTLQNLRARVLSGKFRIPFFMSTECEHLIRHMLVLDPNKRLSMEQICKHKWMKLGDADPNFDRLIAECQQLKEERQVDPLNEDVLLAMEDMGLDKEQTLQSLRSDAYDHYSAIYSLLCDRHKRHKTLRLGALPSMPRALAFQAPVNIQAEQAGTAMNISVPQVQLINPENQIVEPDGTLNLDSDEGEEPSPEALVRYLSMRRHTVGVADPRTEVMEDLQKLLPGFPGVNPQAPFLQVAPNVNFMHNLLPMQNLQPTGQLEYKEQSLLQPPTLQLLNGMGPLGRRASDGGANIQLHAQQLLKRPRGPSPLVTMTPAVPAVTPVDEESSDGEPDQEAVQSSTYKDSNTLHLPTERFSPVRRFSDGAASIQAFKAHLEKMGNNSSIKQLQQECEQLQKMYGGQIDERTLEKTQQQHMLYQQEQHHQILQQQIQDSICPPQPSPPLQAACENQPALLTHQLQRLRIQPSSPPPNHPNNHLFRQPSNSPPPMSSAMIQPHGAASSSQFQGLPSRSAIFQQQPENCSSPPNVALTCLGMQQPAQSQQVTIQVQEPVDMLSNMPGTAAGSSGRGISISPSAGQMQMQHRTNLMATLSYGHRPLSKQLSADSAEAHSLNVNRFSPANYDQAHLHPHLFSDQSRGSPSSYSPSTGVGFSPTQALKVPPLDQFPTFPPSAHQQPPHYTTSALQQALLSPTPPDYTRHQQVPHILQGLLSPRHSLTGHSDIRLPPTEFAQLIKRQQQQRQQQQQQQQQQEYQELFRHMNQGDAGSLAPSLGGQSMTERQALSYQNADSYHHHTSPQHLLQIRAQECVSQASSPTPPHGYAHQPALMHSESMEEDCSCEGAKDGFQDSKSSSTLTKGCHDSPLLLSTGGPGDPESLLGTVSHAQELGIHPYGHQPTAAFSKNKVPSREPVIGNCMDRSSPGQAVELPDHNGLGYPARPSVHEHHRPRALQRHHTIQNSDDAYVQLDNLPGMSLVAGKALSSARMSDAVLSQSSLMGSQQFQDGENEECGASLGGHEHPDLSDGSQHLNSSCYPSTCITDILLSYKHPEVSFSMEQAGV
Data set [4] is described as follows: AUC (0 to t) in Sprague-Dawley rat at 5 mg/kg, iv measured upto 24 hrs by LC/MS/MS analysis. It counts as ADME, organism-based. Details: time < 24 hrs, dose 5 mg/kg, route iv. Conditions: in vivo.
The nature of data set [5]: Tmax in Sprague-Dawley rat at 5 mg/kg, po measured upto 24 hrs by LC/MS/MS analysis. The class given is ADME, organism-based. Conditions: in vivo.
For data set [6], the system named is BMDM. Briefly: Anti-inflammatory activity against C57BL/6J mouse BMDM cells assessed as decrease in IL-12 level upto 500 nM preincubated for 1 hr followed by LPS stimulation measured after 8 hrs by ELISA method. It counts as functional, cell-based. The conditions noted are these: time 9.0 hrs.
For data set [7], the system named is BMDM. Briefly: Cytotoxicity against C57BL/6J mouse BMDM cells assessed as cell viability upto 500 nM preincubated for 1 hr followed by LPS stimulation measured after 2 to 4 hrs by CCK8 assay. The class given is toxicity, cell-based. The conditions noted are these: 0.5 µM, time 3-5 hrs.
Data set [8] can be described thus: Cmax in Sprague-Dawley rat at 5 mg/kg, po measured upto 24 hrs by LC/MS/MS analysis. Conditions: in vivo. The class given is ADME, organism-based. Also on record: time < 24 hrs, dose 5 mg/kg, route po.
A short description of data set [9]: Clearance in Sprague-Dawley rat at 5 mg/kg, iv measured upto 24 hrs by LC/MS/MS analysis. The class given is ADME, organism-based. Conditions: in vivo.
A short description of data set [10]: AUC (0 to t) in Sprague-Dawley rat at 5 mg/kg, po measured upto 24 hrs by LC/MS/MS analysis. It counts as ADME, organism-based. Also on record: time < 24 hrs, dose 5 mg/kg, route po. The conditions noted are these: in vivo.
The subject of data set [11] is BMDM. Nature of the data set: Anti-inflammatory activity against C57BL/6J mouse BMDM cells assessed as increase in IL-10 level at 500 nM preincubated for 1 hr followed by LPS stimulation measured after 2 to 8 hrs by ELISA method. The class given is functional, cell-based. The conditions noted are these: time 3-9 hrs. A general note: ELISA stands for enzyme-linked immunosorbent assay.

The test system of data set [12] is BMDM. Briefly: Anti-inflammatory activity against C57BL/6J mouse BMDM cells assessed as decrease in IL-12 level at 500 nM preincubated for 1 hr followed by LPS stimulation measured after 8 hrs by ELISA method. It counts as functional, cell-based. Conditions: time 9.0 hrs.
Data set [13] in a line: Cmax in Sprague-Dawley rat at 5 mg/kg, iv measured upto 24 hrs by LC/MS/MS analysis. It counts as ADME, organism-based. Also on record: dose 5 mg/kg, time < 24 hrs, route iv. The conditions noted are these: in vivo.
Data set [14] has as its system BMDM. Nature of the data set: Anti-inflammatory activity against C57BL/6J mouse BMDM cells assessed as decrease in IL-12 level at 500 nM preincubated for 1 hr followed by LPS stimulation measured after 4 to 8 hrs by ELISA method. It counts as functional, cell-based. Conditions: time 5-9 hrs.
The nature of data set [15]: Protein binding in human plasma at 10 uM measured for 8 hrs by dialysis method. It counts as ADME, cell-free. Conditions: read-out: PPB (converted).
Data set [16] in a line: Tmax in Sprague-Dawley rat at 5 mg/kg, iv measured upto 24 hrs by LC/MS/MS analysis. The class given is ADME, organism-based. The conditions noted are these: in vivo.
Data set [17] is described as follows: Metabolic stability in mouse liver microsomes assessed as half life. The class given is ADME, Microsome.
Data set [18] in a line: Half life in Sprague-Dawley rat at 5 mg/kg, po measured upto 24 hrs by LC/MS/MS analysis. The class given is ADME, organism-based. Conditions: in vivo.
Data set [19] can be described thus: Clearance in Sprague-Dawley rat at 5 mg/kg, po measured upto 24 hrs by LC/MS/MS analysis. It counts as ADME, organism-based. Conditions: in vivo.
Data set [20] is described as follows: Oral bioavailability in Sprague-Dawley rat at 5 mg/kg measured upto 24 hrs by LC/MS/MS analysis. The class given is ADME, organism-based. Conditions: in vivo.
Data set [21] in a line: Half life in Sprague-Dawley rat at 5 mg/kg, iv measured upto 24 hrs by LC/MS/MS analysis. It counts as ADME, organism-based. The conditions noted are these: in vivo.
Data set [22] can be described thus: Selectivity ratio of IC50 for SIK1 (unknown origin) to IC50 for SIK2 (unknown origin).
The nature of data set [23]: Selectivity ratio of IC50 for SIK3 (unknown origin) to IC50 for SIK2 (unknown origin).
Data set [24] addresses T1, Serine/threonine-protein kinase SIK2. Nature of the data set: Inhibition of SIK2 (unknown origin).
Target sequence in this assay (Q9H0K1 whole entry): as the sequence (Q9H0K1 whole entry, looked up) above
The target in data set [25] is T3, Serine/threonine-protein kinase SIK1 (Homo sapiens, UniProt P57059). Nature of the data set: Inhibition of SIK1 (unknown origin).
T3 sequence (P57059 whole entry): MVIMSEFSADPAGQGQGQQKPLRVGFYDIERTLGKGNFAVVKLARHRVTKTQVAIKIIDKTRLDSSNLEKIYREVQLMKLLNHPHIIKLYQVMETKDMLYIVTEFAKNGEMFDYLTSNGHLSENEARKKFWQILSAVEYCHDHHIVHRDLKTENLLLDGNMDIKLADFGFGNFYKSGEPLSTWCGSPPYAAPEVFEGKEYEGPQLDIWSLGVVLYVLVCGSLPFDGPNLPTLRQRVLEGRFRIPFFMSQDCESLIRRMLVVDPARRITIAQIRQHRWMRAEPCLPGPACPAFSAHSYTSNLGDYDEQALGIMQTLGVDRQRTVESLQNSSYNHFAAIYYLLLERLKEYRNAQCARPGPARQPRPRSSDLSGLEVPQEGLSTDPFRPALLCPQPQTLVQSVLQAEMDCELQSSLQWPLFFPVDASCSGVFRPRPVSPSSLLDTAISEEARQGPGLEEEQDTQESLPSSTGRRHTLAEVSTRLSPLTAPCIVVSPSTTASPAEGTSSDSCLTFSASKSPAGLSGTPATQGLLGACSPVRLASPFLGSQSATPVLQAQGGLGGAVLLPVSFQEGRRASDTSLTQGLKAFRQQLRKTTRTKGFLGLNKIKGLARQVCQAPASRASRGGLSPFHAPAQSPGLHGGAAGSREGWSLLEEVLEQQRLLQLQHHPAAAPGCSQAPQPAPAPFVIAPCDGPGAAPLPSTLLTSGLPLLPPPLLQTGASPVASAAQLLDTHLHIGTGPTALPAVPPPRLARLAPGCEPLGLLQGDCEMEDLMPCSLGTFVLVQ
Data set [26] deals with T2, Serine/threonine-protein kinase SIK3. Nature of the data set: Inhibition of SIK3 (unknown origin).
Target sequence in this assay (Q9Y2K2 whole entry): as the sequence (Q9Y2K2 whole entry, looked up) above
In data set [27] the target is T3, Serine/threonine-protein kinase SIK1. Briefly: Inhibition of SIK1 (unknown origin) assessed as residual activity at 0.1 uM relative to control.
Data set [28] can be described thus: Protein binding in mouse plasma. It counts as ADME, cell-free. The conditions noted are these: read-out: PPB.

As a reminder, the half-life is the time needed for the level to fall by half in the phase considered. As for `Cc1cccc(C)c1NC(=O)c1cnc(Nc2ccc(N3CCN(C)CC3)cc2)nc1NC1CCC1`, the half-life in data set [1] worked out at 44.7 min.

`Cc1cccc(C)c1NC(=O)c1cnc(Nc2ccc(N3CCN(C)CC3)cc2)nc1NC1CC1`: in [1], the half-life is 40.8 min.

For `Cc1cccc(Br)c1NC(=O)c1cnc(Nc2ccc(N3CCN(C)CC3)cc2)nc1NC1CCC1`, the values for the Activity in [2] and in data set [3] were 52% and 66%, respectively. Moreover, the half-life in [1] was 21.5 min.

With `Cc1cccc(C)c1NC(=O)c1cnc(Nc2ccc(N3CCN(C)CC3)cc2F)nc1NC1CCC1`, the half-life in data set [1] was above 120 min.

For `Cc1cccc(C)c1NC(=O)c1cnc(Nc2ccc(N3CCN(C)CC3)c(F)c2)nc1NC1CC1`, in [1], the half-life amounted to 60.3 min.

One may read the AUC(0-t) as the area under the concentration-time curve up to a stated or last time point. Low values mean less exposure, high ones more exposure. In general, Tmax refers to the time at which the peak concentration occurs. As a reminder, the Cmax is the peak of the concentration-time curve. Usually clearance stands for a measure of how efficiently the substance is removed, as volume per time. Lower therefore signals a low capacity for elimination. As usually defined, the CL/F is the apparent clearance, not corrected for the fraction that reaches the circulation. Broadly, the bioavailability is the share of a dose that reaches the circulation, judged against a reference dose that is usually intravenous. A high value points to much systemic uptake. Consider `COc1ccc(N(C(=O)Nc2c(C)cccc2C)c2cc(Nc3ccc(N4CCN(C)CC4)cc3)ncn2)c(OC)c1`, for which the AUC(0-t) at 24 h in data set [4] was 1110 ng·h/mL; in data set [10], 522 ng·h/mL. In addition, the figures for the Tmax in [5] and in data set [16] were 78 min and 6 min, respectively. In addition, the outcome in [6], in [11] and in [12] was Active. Also, the Activity result in [7] is listed as “Non-Toxic”. Further, the Cmax in data set [8] came out at 149 ng/mL; in data set [13] it was 1290 ng/mL. In data set [9], this molecule gave a clearance of 76.7 mL/min/kg. For the same molecule, the half-life in data set [1] is 14.4 min; in [17], 11 min; in [18] it was 150 min; in data set [21] it was 210 min. Also, the result in [14] was inactive. Also, the fraction unbound at 8 h, 10 µM in data set [15] is below 0.01. Moreover, the CL/F in data set [19] was 223 mL/min/kg. In data set [20], the bioavailability worked out at 47.2%.

Turning to `Cc1cccc(C)c1NC(=O)c1cnc(Nc2ccc(N3CCN(C)CC3)cc2)nc1NC(C)C`, the half-life in data set [1] came to 24.3 min.

By IC50 is commonly meant the concentration that inhibits the measured activity by half. A low value points to inhibition by little substance. As to `Cc1cccc(F)c1NC(=O)c1cnc(Nc2ccc(N3CCN(C)CC3)c(F)c2)nc1NC1CC1`, the Ratio IC50 in [22] came out at 2.7; in data set [23], 8.5. For the same molecule, the AUC(0-t) at 24 h in [4] was 1850 ng·h/mL; in data set [10], 432 ng·h/mL. Besides, the Tmax in data set [5] is 222 min; in [16] it was 6 min. Besides, the Cmax in [8] came out at 52.2 ng/mL; in data set [13] it was 1540 ng/mL. Also, the IC50 turned out to be 6 nM in data set [24], 16 nM in data set [25] and 51 nM in data set [26]. Also, in data set [9], the clearance is 51.7 mL/min/kg. Also, the half-life in [1] is 73.7 min; in [18] it was 234 min; in data set [21], 366 min. Also, the CL/F in data set [19] is 315 mL/min/kg. The bioavailability in [20] was determined as 23.4%.

Take `CN1CCN(c2ccc(Nc3ncc(C(=O)Nc4c(F)cccc4F)c(NC4CCC4)n3)cc2)CC1`: the Activity amounted to 10% in data set [2], 12% in data set [27] and 93% in [3]. Further, the half-life in data set [1] came out at 49.5 min.

As for `COc1ccc(N2C(=O)N(c3c(C)cccc3Cl)Cc3cnc(Nc4ccc(C5CCN(C)CC5)cc4OC)nc32)nc1`, in data set [28], the fraction unbound is above 0.06. In addition, in data set [17], the half-life is above 120 min.

Regarding `COc1ccc(N2C(=O)N(c3c(C)cccc3Cl)Cc3cnc(Nc4ccc(N5CCN(C)CC5)cc4)nc32)nc1`, in data set [17], the half-life worked out at 27 min.

`Cc1cccc(C)c1NC(=O)c1cnc(Nc2ccc(N3CCNCC3)cc2)nc1NC1CCC1`: in data set [1], the half-life turned out to be 33 min.

Turning to `Cc1cccc(C)c1NC(=O)c1cnc(Nc2ccc(CN3CCOCC3)cc2)nc1NC1CCC1`, in data set [1], the half-life was found to be 6.5 min.

For `Cc1cccc(Cl)c1NC(=O)c1cnc(Nc2ccc(N3CCN(C)CC3)cc2)nc1NC1CCC1`, the Activity came out at 20% in data set [2], 31% in data set [27] and 68% in [3]. The half-life in [1] came to 43.3 min.

With `Cc1cccc(C)c1NC(=O)c1cnc(Nc2ccc(N3CCN(C)CC3)c(Cl)c2)nc1NC1CCC1`, the half-life in data set [1] was found to be 56.6 min.

For `COc1ccc(Nc2nc(Nc3ccc(N4CCN(C)CC4)cc3)ncc2C(=O)Nc2c(C)cccc2C)c(OC)c1`, the half-life in data set [1] is above 120 min.

Consider `Cc1cccc(C)c1NC(=O)c1cnc(Nc2ccc(N3CCN(C)CC3)c(F)c2)nc1NC1CCC1`, for which, in data set [1], the half-life worked out at 62.4 min.

`Cc1cccc(F)c1NC(=O)c1cnc(Nc2ccc(N3CCN(C)CC3)cc2)nc1NC1CCC1`: the Activity in data set [2] is 1%; in data set [3], 9%. Also, in data set [1], the half-life was 69.3 min.

On to `COc1cccc(C)c1NC(=O)c1cnc(Nc2ccc(N3CCN(C)CC3)cc2)nc1NC1CCC1`, for which the Activity in data set [2] worked out at 107%; in data set [3], 93%. For the same molecule, the half-life in data set [1] came out at 31.9 min.

Consider `CNc1nc(Nc2ccc(N3CCN(C)CC3)cc2)ncc1C(=O)Nc1c(C)cccc1C`, for which the half-life in data set [1] is 17.5 min.

Consider `CN1CCN(c2ccc(Nc3ncc(C(=O)Nc4ccccc4F)c(NC4CCC4)n3)cc2)CC1`, for which the Activity in [2] worked out at 22%; in data set [27], 124%; in [3] it was 100%. Also, the half-life in data set [1] was determined as 45.6 min.

On to `Cc1cccc(C)c1NC(=O)c1cnc(Nc2ccc(N3CCN(C)CC3)cc2)nc1NC1CCCC1`, for which, in data set [1], the half-life amounted to 32.4 min.

With `COc1cc(N2CCN(C)CC2)ccc1Nc1ncc(C(=O)Nc2c(C)cccc2C)c(NC2CCC2)n1`, the half-life in data set [1] came out at 44.1 min.

Turning to `Cc1cccc(C)c1NC(=O)c1cnc(Nc2ccc(N3CCN(C)CC3)cc2)nc1NC1CCCCC1`, the half-life in [1] stood at 37.3 min.

For `COc1cc(Nc2ncc(C(=O)Nc3c(C)cccc3C)c(NC3CC3)n2)ccc1N1CCN(C)CC1`, the half-life in [1] amounted to 52.1 min.

In the case of `COc1cc(Nc2ncc(C(=O)Nc3c(C)cccc3C)c(NC3CCC3)n2)ccc1N1CCN(C)CC1`, the half-life in [1] is 48.6 min.
